The values that follow come from patent US20060204443A1, “Methods for tumor treatment using dendrimer conjugates” (The Government of the USA as represented by the Secretary …, priority 2005, published 2006).

In data set [1] the test system is lymphatic drainage from tumor-bearing mammary glands. Kind of data set: MR mammo-lymphangiography in breast tumor models (BALB-neuT, PT-18 xenograft). In kind it is in vivo, mice. The source says:
The breast-tumor bearing mice were thirty one week-old BALB-neuT mice (n=3) transgenic for the rat HER-2/neu (Erb B2) oncogene under the control of the mouse mammary tumor virus promotor (MMTV). […] BALB-neuT mice were used because of their spontaneous development of bilateral breast cancers and lymph node metastases. Heterozygous female BALB-neuT mice (BALB/c background) develop mammary gland lobule hyperplasia at 5-6 weeks of age that progresses to atypical hyperplasia by 8-9 weeks, followed by in situ carcinoma by 14 weeks, becoming invasive carcinoma usually by 21 week of age. Rovero et al., J. Immunol.; 165:5133-42, 2000. Most metastatic lymph nodes from the mouse mammary pad localize in the neck, lateral thoracic, or axillary region.
Tumor xenografts of PT-18, a murine mast cell line, were introduced into the left mammary pad in athymic nu/nu mice. When 10^7 PT-18 cells were injected in the left mammary pad of 10 athymic nu/nu mice, six mice developed tumor masses in the left axillary lymph nodes within three weeks.
Mice were anesthetized with 1.15 mg sodium pentobarbital (Dainabot, Osaka, Japan), and then injected with 0.15-0.24 μmol Gd/5-8 μL of the PAMAM-G6 contrast agent into normal mammary glands or mammary tissue surrounding a tumor (peritumorally). Dynamic micro-MR images were obtained using a 1.5-Tesla superconductive magnet unit (Signa LX, General Electric Medical System, Milwaukee, Wis.) with a birdcage type coil of 3 cm diameter fixed by a custom made coil holder. Single and double “breast coils” used for imaging breasts in humans are commercially available, for example, from GE Medical Systems (Milwaukee, Wis.) and are routinely available in outpatient MRI centers. The mice were wrapped with gauze to stabilize their body temperature and were placed at the center of the coils. […]

Data set [2] can be described thus: Quantification of contrast agent in sentinel lymph nodes (signal intensity compared with phantoms). The format is in vivo, athymic nu/nu mice. Here is the method:
In order to semi-quantify the concentration of contrast agent within each sentinel lymph node, non-tumor bearing athymic nu/nu mice (n=8) were anesthetized and injected with 0.40 μmolGd of the G6 contrast agent (40 mMGd/6400 ppm) into the mammary gland, and axial images were taken with serum phantoms containing known concentrations (2.5 and 5 mM) of G6 using the 3D-fastSPGR (repetition time/echo time 19.2/7.2 msec; inversion time 47 msec; bandwidth 31.2 kHz, flip angle 30°, 3 excitations; 16 slice encoding steps; scan time 2 minutes 25 seconds) 12, 24, 36, 48, and 60 minutes after injection.
To validate the concentration of G6 agent, we used another method to calculate the Gd concentration in the enhanced left axillary lymph node. The consecutive MR images of 5 separate mice together with the same phantoms used above were taken with the same 3D-fSPGR protocol using 4 flip angles (10, 20, 30, and 40 degrees) at 24 min post-injection of 40 mM/20 μL G6 agent in the left mammary gland. Signal intensity of the enhanced left axillary lymph node was corrected with that in the right axillary lymph node as a non-enhanced control. Then, signal intensities obtained with different flip angles were plotted in order to calculate decreased T1 values in the left axillary lymph node due to the presence of G6 agent. Gd(III) concentrations were calculated based on the decreased T1 values in the enhanced node and the R1 relaxivity of G6 agent at this condition. Technically, multi-flip angle scans were able to be performed once an hour because of the gradient driver overheat on the MRI system. In order to calculate serial concentration of the G6 agent, this separate set of mice was used only to obtain the T1 values. The serial concentrations of G6 agent were calculated based on serial scan data under flip angle (30°) and T1 values obtained from multi-flip angle scans.

Setting [3] is: PT-18 model, peritumoral injection.

In the case of “PAMAM-G6D-(Gd-1B4M)256 dendrimer conjugate”, the “Imaging of enlarged metastatic lymph nodes and dilated lymphatic vessels” value in data set [1] (BALB-neuT model) is reported as “clearly imaged”. In data set [1] (setting [3]), the “Enhancement of axillary lymph node tissue with metastatic tumor cells” value is recorded as “did not shown enhancement”; the “Lymphatic vessel flowing into the lymph node with a metastatic tumor” value was “dilated and showed enhancement”. Further, the “Time of maximum concentration in the axillary lymph node” value in data set [2] (five mice) is 24 minutes post-injection in two of five mice and 36 minutes post-injection in three of five mice. Besides, in data set [2] (mouse, in vivo), the “Retention in the left axillary lymph node (FIG. 23)” value is on record as “maintained in high concentration in the lymph node for up to 60 minutes post-injection”. Moreover, in data set [2] (number of mice), the “Accumulation in the lateral thoracic lymph nodes” value is listed as “three of five mice”.
